Where “and” joins values, the source holds several entries; their conditions need not be identical. Equal entries are not always repeated.
Key:
navicular disease [1] = assay: Efficacy of oral pentoxifylline in the treatment of navicular disease in horses (6 week lameness study); type: in vivo, horse
Text: As previously mentioned, it is preferred to administer daily doses of pentoxifylline for a prescribed period of time in order to alleviate lameness caused by navicular disease. […] It is preferred to administer the daily doses tid. In this regard, powder, tablet or capsule formulations, containing between 2-10 gm of pentoxifylline should be administered for this purpose. As previously indicated, the amount of daily doses is dependent on a variety of factors, including the size of the horse being treated.
The purpose of the following study was to assess the efficacy of pentoxifylline in the treatment of navicular disease in horses; to establish an appropriate dosage and treatment interval, and to identify adverse effects from treatment.
Twenty-seven horses entered the study between September 1985 and March 1986.
Pentoxifylline was supplied as an oral powder prepared in individual plastic vials of 2 gm Pentoxifylline mixed with 4 gm icing sugar, to ensure palatability.
Diagnosis of navicular disease was made using the following criteria:
1) history - including clinical and previous treatment history.
lameness observed at walk and while lunging to the left and to the right.
3) diagnostic posterior digital nerve block
horses not sound following bilateral desensitization of the posterior digital nerves were not admitted into the study
4) radiographic examination of confirmation of disease as noted by classical navicular lesions, on a minimum of three views
Treatment was administered daily for 42 days.
Horses were characterized as either severely lame, moderately lame, or slightly lame, as follows:
Treatment response was classified as excellent, good, fair, or poor.
Soundness was subjectively rated by the veterinarian on a percent basis. Percent soundness at the study's onset was subtracted from percent soundness at the study's conclusion, and this difference was plotted as a histogram (graph 2), to show the magnitude of improvement with the 6 week course of treatment. At week 4 there was an average of 57% improvement. For instance, horse number 3 was rated as 25% sound at the onset of the study, and 100% sound after six weeks, yielding an improvement of 75%.

navicular disease [2] = assay: Long term efficacy: follow up evaluation of soundness after termination of the 6 week treatment; type: in vivo, horse
Text: Ten horses received a further follow up evaluation after termination of the 6 week treatment period. The horses are listed below, along with the date of visit (weeks post-initiation of study) and the soundness evaluation.

[3] = in vivo
Text: (§1) Follow-up observations occurred weekly during the six week treatment period, and for a final time approximately 4 weeks after the 6 week treatment period was over. The follow-up visits consisted of a lameness evaluation on the lunge line, at the walk and at rest. Owners/trainers were asked to report any side effects observed that may or may not have been related to Pentoxifylline therapy, and any other problems that had arisen during the week, concurrent medications administered for other causes, and the horse's progress while being exercised. Blood samples were drawn prior to first treatment, at 3 weeks, and at 6 weeks for routine hematological and clinical chemistry profiles. Samples were drawn prior to lameness examination after the horse had been resting quietly in the stall. Most samples were drawn early in the afternoon, and were immediately submitted to Metro Animal Laboratories, Bloor Street, Toronto.

[4] = Side effects during the study
Text: as §1

[5] = cited from earlier work
[6] = duration of lameness 2 years-5 years (5)
[7] = duration of lameness 5 years (4)
[8] = duration of lameness 6 months (7)
[9] = duration of lameness <6 months, >2 years (11)
[10] = lameness at onset moderate (11)

SMILES: CC(=O)CCCCn1c(=O)c2c(ncn2C)n(C)c1=O [pentoxifylline, 1-(5-oxohexyl)-3,7-dimethylxanthine]
- response over time (navicular disease [1]; 1 week): evident at 1 week
- response over time (navicular disease [1]; 2 and 3 weeks): marked at 2 and 3 weeks
- response at dose (navicular disease [1]; 2 gm bid): not considered consistently optimal
- response at dose (navicular disease [1]; 6 gram dosage divided tid): achieved the best results
- response over time (navicular disease [1]; between 4 and 6 weeks): did not regress between 4 and 6 weeks
- excellent responses, % of horses (navicular disease [1]; cases of greater than 5 years duration, 4 horses): 50%
- excellent responses, number of horses (navicular disease [1]; cases of greater than 5 years duration, out of 4 horses): 2 horses
- effect on navicular lameness (navicular disease [1]; daily doses between 6 gm and 30 gm for 4-6 weeks): effective in completely eliminating navicular lameness
- Response excellent, number of horses (navicular disease [1]; [6]): 2 horses
- Response good, number of horses (navicular disease [1]; [6]): 1 horses
- Response poor, number of horses (navicular disease [1]; [6]): 1 horses
- Response excellent, number of horses (navicular disease [1]; [7]): 2 horses
- Response fair, number of horses (navicular disease [1]; [7]): 1 horses
- Response good, number of horses (navicular disease [1]; [7]): 1 horses
- Response excellent, number of horses (navicular disease [1]; [8]): 4 horses
- Response good, number of horses (navicular disease [1]; [8]): 1 horses
- Response poor, number of horses (navicular disease [1]; [8]): 1 horses
- Response excellent, number of horses (navicular disease [1]; [9]): 7 horses
- Response fair, number of horses (navicular disease [1]; [9]): 1 horses
- Response good, number of horses (navicular disease [1]; [9]): 2 horses
- Response poor, number of horses (navicular disease [1]; [9]): 1 horses
- excellent responses, % of horses (navicular disease [1]; duration of lameness up to two years, 18 horses): 61%
- excellent responses, number of horses (navicular disease [1]; duration of lameness up to two years, out of 18 horses): 11 horses
- treatment response (navicular disease [1]; horse #9 (It's Casual), six week course, previous bilateral neurectomy): never showed significant improvement
- treatment assessment (navicular disease [1]; horse #15 (Cheska)): refractory to pentoxifylline treatment
- evaluated sounder (navicular disease [1]; horse #15 (Cheska), end of 4 weeks, dosage increased to 2 gm tid): 90%
- treatment response (navicular disease [1]; horse #15 (Cheska), first 3 weeks, 2 gm bid, drug not administered properly): virtually no response
- lameness (navicular disease [1]; horse #15 (Cheska), weeks 5 and 6, after jumping in 4th week): as lame as at the beginning
- treatment assessment (navicular disease [1]; horse #18 (Molson), irregular treatment): refractory to treatment
- treatment response (navicular disease [1]; horse #18 (Molson), week 3 and week 5): marked improvement
- lameness (navicular disease [1]; horse #18 (Molson), week 6, inconsistent drug administration): as lame as at the onset of the study
- percent soundness after six weeks (navicular disease [1]; horse number 3, 25% sound at onset): 100%
- improvement in percent soundness (navicular disease [1]; horse number 3, six weeks vs onset): 75%
- response by lameness at onset (navicular disease [1]; horses with moderate lameness): preponderance of excellent responses
- Response excellent, number of horses (navicular disease [1]; [10]): 7 horses
- Response fair, number of horses (navicular disease [1]; [10]): 2 horses
- Response good, number of horses (navicular disease [1]; [10]): 1 horses
- Response good, number of horses (navicular disease [1]; lameness at onset severe (8)): 1 horses
- Response poor, number of horses (navicular disease [1]; lameness at onset severe (8)): 3 horses
- Response good, number of horses (navicular disease [1]; lameness at onset slight (2)): 2 horses
- Response excellent, number of horses (navicular disease [1]; lameness at onset slight-moderate (6)): 6 horses
- Response fair, number of horses (navicular disease [1]; n = 25, oral, 42 days): 2 horses
- Response good, number of horses (navicular disease [1]; n = 25, oral, 42 days): 5 horses
- Response poor, number of horses (navicular disease [1]; n = 25, oral, 42 days): 3 horses
- Response excellent, number of horses (navicular disease [1]; n = 25, oral, 42 days, 2 gm bid or tid): 15 horses
- Response excellent, % of horses (navicular disease [1]; oral, 4 to 6 week treatment): 63%
- Response fair, % of horses (navicular disease [1]; oral, 4 to 6 week treatment): 8%
- Response good, % of horses (navicular disease [1]; oral, 4 to 6 week treatment): 20% and 17%
- Response poor, % of horses (navicular disease [1]; oral, 42 days): 13%
- time of maximal response (navicular disease [1]; response over time, graph 1): 4 weeks
- effect on lameness of navicular disease (navicular disease [1]; varying severity and duration): effective in alleviating the lameness
- average improvement in percent soundness (navicular disease [1]; week 4, subjective rating by veterinarian, difference from onset): 57%
- horses judged to be sore again after cessation of treatment (navicular disease [2]; 2 weeks after cessation, Innovator, Capital Gains, Ensign): Three horses
- follow up soundness (navicular disease [2]; horse 1 Jake, 9 weeks post-initiation): 80 % sound
- follow up soundness (navicular disease [2]; horse 1 Jake, 11 weeks, being ridden): still sound
- follow up soundness (navicular disease [2]; horse 1 Jake, 20 weeks, being ridden): 100 % sound
- Status (navicular disease [2]; horse 1 Jake, greater than 6 weeks): Improved
- Status (navicular disease [2]; horse 2 Lucky Lion, 2 gm once per day maintenance at 10 weeks): Improved
- Status (navicular disease [2]; horse 3 Remeny): Improved
- follow up soundness (navicular disease [2]; horse 3 Remeny, 12 weeks): hunting sound
- follow up soundness (navicular disease [2]; horse 3 Remeny, 18 weeks): very sound
- Status (navicular disease [2]; horse 4 Ensign): Same
- follow up soundness (navicular disease [2]; horse 4 Ensign, 8 weeks): sore RF
- follow up soundness (navicular disease [2]; horse 4 Ensign, 11 weeks, when given 2 gm/day): sound again
- Status (navicular disease [2]; horse 5 Wessex): Improved
- follow up soundness (navicular disease [2]; horse 5 Wessex, 15 weeks, compared with end of the 6 weeks): sounder than
- Status (navicular disease [2]; horse 11 Capital Gains): Improved
- follow up soundness (navicular disease [2]; horse 11 Capital Gains, 8 weeks, without drug): less sound
- Status (navicular disease [2]; horse 13 Peaches 'N Cream): Same
- follow up soundness (navicular disease [2]; horse 13 Peaches 'N Cream, 11 weeks, compared with when entered study): as sound
- Status (navicular disease [2]; horse 14 Cash in McCue): Improved
- follow up soundness (navicular disease [2]; horse 14 Cash in McCue, 12 weeks): 100 % sound
- Status (navicular disease [2]; horse 16 B. E. Skipper): Improved
- follow up soundness in field (navicular disease [2]; horse 16 B. E. Skipper, 11 weeks, looks sound in field): 100 % sound
- follow up soundness (navicular disease [2]; horse 16 B. E. Skipper, 11 weeks, riding again): 90 % sounder
- Status (navicular disease [2]; horse 20 Innovator): Worse
- follow up soundness to LT (navicular disease [2]; horse 20 Innovator, 7 weeks): 80 % sounder
- follow up soundness to RT (navicular disease [2]; horse 20 Innovator, 7 weeks): 90 % sounder
- follow up lameness (navicular disease [2]; horse 20 Innovator, 9 weeks, compared with before treatment): as lame at 9 weeks as he had been prior to treatment
- horses considered sounder than at the end of the 6 week treatment period (navicular disease [2]; of 10 horses followed up): Seven of these 10 horses
- pattern when drug administration ceased (navicular disease [2]; other horses): regressed rapidly when treatment ended
- pattern when drug administration ceased (navicular disease [2]; some cases): maintained the improvement noted at 6 weeks
- Baso mean [3]: 0.5%
- Cl mean [3]: 98.9 mmol/L
- Clinical chemistry values vs equine reference range [3]: within the reference range for the equine species
- Hematology values vs normal limits [3]: within normal limits throughout the study
- Mean clinical chemistry values vs baseline [3]: did not differ significantly
- Number of horses with platelets increased since baseline [3]: 20 horses
- Platelets increase [3]: 4,520
- clinical effect on blood chemistry [3]: no clinical effect
- horses with lower platelet count at week 6 than at week 3 [3]: 13 horses
- Sweating episodes ([4]; horse 14 Cash in McCue, after 2 weeks): 5 episodes
- Stocked up, number of horses ([4]; horse 15 Cheska, RF at week 6): 1 horses
- Colic, number of horses ([4]; horse 23 Greek Anthem, between weeks 2 and 3, previous history of colic): 1 horses
- Sweating, number of horses ([4]; horses 14 and 20): 2 horses
- Colic, relation to drug ([4]; in vivo): unrelated
- Stocked up, relation to drug ([4]; in vivo): unrelated
- harmful side effects ([4]; in vivo): have not been identified
- horses with unusual occurrences ([4]; in vivo): Four horses
- instances judged drug-related side effect ([4]; throughout the study): 1
- Sweating in humans ([5]; human side effect): occasional human side effect
- lag period to maximum response in man ([5]; lag in horses said to be similar): two week period

From patent publication US5077296A, “Method for treating equine navicular disease with pentoxifylline, and composition containing pentoxifylline for administrating to horses” (priority 1987, dated 1991)
